Data as given in paper PMC6704710, “Preclinical evaluation of 3D185, a novel potent inhibitor of FGFR1/2/3 and CSF-1R, in FGFR-dependent and macrophage-dominant cancer models” (Journal of Experimental & Clinical Cancer Research : CR, 2019).

Legend:
Experiment in all cases: Eurofins kinase panel
Type in all cases: biochemical
Conditions in all cases: read-out: Inhibition rate (%)
[1] = target: T1, ALK1(h) (Homo sapiens, UniProt P37023)
T1 construct: purchased Eurofins (KinaseProfiler)

[2] = target: T2, ATR/ATRIP(h) (Homo sapiens, UniProt Q13535)
T2 construct: purchased Eurofins (KinaseProfiler)
T2 sequence (Q13535 whole entry): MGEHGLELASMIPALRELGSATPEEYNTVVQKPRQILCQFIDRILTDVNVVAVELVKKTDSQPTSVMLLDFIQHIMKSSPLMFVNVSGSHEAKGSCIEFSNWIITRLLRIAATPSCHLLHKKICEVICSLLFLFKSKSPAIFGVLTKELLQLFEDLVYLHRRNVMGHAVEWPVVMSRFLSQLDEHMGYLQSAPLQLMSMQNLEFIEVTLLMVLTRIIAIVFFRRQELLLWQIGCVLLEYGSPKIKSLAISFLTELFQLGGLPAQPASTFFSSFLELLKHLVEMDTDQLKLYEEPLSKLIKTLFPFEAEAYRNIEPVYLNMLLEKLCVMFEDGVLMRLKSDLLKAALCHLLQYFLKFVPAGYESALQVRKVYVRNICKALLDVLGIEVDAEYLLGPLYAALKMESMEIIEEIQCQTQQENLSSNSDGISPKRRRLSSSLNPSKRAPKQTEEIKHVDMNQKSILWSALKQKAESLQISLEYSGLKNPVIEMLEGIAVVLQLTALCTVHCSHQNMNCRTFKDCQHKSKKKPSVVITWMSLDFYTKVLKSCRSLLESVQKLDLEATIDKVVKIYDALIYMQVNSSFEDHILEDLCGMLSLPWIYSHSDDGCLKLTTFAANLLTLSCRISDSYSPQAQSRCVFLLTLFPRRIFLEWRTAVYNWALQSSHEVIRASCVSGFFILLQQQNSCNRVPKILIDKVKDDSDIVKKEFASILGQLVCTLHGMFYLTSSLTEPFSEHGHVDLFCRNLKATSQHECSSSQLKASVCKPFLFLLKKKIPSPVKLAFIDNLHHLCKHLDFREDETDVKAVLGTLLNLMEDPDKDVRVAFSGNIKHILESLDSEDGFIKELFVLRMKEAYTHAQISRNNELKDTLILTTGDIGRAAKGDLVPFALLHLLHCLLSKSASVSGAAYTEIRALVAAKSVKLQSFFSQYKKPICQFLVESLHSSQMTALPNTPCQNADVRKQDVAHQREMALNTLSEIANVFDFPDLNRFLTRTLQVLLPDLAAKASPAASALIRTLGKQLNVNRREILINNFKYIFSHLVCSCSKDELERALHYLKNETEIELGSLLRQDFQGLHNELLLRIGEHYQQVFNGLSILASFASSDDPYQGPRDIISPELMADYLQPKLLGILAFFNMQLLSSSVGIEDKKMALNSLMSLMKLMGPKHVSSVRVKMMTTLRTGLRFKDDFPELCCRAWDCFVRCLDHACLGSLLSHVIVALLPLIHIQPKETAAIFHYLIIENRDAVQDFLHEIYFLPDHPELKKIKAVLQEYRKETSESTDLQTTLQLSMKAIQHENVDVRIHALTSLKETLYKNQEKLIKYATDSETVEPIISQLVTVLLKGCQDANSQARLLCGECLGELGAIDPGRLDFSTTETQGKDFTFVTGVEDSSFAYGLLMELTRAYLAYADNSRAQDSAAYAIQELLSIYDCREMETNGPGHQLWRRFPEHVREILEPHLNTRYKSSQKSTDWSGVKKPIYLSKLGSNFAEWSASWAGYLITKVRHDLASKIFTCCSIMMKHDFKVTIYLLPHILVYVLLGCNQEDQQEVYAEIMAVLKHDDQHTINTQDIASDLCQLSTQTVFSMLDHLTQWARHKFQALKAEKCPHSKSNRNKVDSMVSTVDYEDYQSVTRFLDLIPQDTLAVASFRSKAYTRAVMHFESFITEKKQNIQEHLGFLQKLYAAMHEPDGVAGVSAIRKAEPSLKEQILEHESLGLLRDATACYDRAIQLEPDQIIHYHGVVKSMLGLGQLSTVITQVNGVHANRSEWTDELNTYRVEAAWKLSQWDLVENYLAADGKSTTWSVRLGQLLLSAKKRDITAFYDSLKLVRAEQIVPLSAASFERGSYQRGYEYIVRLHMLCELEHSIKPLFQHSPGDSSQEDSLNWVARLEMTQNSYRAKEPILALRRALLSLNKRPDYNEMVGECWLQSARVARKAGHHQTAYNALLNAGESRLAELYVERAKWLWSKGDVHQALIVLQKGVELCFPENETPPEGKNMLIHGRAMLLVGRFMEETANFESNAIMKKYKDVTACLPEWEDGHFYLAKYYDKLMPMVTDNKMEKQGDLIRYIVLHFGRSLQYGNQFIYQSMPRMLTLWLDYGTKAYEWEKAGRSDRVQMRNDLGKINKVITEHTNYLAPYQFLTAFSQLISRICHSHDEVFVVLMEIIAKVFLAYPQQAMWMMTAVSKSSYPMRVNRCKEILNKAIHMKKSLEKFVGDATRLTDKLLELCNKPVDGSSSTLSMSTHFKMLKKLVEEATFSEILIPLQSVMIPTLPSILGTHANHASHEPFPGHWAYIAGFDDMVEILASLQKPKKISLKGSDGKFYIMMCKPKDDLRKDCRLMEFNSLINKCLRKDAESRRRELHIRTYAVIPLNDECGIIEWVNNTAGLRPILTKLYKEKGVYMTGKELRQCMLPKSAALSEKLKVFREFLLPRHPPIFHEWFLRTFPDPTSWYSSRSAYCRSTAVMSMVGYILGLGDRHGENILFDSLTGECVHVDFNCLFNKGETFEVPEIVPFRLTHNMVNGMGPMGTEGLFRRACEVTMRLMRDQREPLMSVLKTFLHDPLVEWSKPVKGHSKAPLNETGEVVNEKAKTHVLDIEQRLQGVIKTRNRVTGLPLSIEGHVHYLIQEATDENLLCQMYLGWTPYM
T2 sequence (Q8WXE1 whole entry partner): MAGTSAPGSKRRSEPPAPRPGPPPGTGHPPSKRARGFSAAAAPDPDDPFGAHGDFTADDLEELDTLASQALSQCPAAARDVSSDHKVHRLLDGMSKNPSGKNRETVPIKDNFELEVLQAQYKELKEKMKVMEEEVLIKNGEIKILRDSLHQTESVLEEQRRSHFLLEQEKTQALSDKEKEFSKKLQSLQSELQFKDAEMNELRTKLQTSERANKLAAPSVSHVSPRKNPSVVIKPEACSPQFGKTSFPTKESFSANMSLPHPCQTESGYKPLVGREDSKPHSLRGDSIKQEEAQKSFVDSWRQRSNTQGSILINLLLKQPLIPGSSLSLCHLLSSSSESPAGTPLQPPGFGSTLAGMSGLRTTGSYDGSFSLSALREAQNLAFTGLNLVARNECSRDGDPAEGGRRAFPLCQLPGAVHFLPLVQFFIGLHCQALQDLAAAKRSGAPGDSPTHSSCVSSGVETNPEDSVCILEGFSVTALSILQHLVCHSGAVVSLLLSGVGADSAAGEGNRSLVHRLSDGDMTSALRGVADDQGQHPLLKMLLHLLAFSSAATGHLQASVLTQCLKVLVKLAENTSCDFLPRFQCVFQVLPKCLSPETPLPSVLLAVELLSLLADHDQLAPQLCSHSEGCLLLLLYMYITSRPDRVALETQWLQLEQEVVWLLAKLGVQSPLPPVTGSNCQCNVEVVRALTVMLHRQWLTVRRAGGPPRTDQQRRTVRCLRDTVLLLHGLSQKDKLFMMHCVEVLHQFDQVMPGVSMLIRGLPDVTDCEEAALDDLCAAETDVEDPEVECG

[3] = target: T3, LOK(h) (Homo sapiens, UniProt O94804)
T3 construct: purchased Eurofins (KinaseProfiler)

[4] = target: T4, MLK1(h) (Homo sapiens, UniProt P80192)
T4 construct: purchased Eurofins (KinaseProfiler)
T4 sequence (P80192 whole entry): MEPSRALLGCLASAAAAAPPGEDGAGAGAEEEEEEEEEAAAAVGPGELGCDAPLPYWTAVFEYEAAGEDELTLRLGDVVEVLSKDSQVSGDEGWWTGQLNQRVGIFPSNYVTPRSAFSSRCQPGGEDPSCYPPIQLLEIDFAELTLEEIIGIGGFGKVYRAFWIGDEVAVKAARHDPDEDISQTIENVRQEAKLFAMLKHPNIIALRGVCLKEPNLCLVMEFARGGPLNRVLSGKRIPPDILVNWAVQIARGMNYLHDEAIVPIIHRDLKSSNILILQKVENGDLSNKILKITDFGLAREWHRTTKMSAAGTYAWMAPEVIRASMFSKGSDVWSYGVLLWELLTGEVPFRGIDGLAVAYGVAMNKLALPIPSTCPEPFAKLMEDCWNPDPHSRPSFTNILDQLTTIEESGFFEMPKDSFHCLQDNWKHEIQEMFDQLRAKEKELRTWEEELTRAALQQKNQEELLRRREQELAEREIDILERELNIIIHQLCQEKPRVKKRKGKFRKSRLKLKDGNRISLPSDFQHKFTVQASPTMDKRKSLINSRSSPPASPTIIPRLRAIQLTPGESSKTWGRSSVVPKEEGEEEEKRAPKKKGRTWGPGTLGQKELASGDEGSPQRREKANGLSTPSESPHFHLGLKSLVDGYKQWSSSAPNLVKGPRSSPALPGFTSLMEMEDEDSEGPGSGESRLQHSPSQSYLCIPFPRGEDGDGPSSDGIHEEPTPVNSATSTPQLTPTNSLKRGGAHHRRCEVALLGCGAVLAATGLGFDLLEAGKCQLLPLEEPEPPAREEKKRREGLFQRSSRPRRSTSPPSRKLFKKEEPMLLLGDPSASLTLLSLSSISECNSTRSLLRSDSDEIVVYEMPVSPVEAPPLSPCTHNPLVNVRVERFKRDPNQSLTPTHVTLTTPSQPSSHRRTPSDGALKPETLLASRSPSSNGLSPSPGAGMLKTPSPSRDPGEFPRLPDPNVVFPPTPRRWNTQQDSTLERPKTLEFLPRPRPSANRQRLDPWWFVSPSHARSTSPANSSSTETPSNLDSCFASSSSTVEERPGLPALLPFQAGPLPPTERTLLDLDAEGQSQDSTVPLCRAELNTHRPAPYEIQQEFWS

[5] = target: T5, Rsk1(h) (Homo sapiens, UniProt Q15418)
T5 construct: purchased Eurofins (KinaseProfiler)

[6] = target: T6, SGK2(h) (Homo sapiens, UniProt Q9HBY8)
T6 construct: purchased Eurofins (KinaseProfiler)
T6 sequence (Q9HBY8 1-367): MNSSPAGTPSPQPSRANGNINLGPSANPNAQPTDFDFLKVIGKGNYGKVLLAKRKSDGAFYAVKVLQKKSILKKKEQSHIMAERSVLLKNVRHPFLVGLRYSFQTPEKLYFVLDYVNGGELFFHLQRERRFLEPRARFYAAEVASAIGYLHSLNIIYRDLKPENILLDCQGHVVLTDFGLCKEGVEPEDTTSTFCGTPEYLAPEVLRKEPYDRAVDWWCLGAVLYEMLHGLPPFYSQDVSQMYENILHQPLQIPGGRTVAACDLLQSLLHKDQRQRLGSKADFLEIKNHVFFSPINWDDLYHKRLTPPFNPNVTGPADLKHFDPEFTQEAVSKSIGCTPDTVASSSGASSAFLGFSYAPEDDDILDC

[7] = target: T7, STK32A(h) (Homo sapiens, UniProt Q8WU08)
T7 construct: purchased Eurofins (KinaseProfiler)

[8] = target: T8, TLK2(h) (Homo sapiens, UniProt Q86UE8)
T8 construct: purchased Eurofins (KinaseProfiler)

[9] = target: T9, TSSK1(h) (Homo sapiens, UniProt Q9BXA7)
T9 construct: purchased Eurofins (KinaseProfiler)
T9 sequence (Q9BXA7 1-367): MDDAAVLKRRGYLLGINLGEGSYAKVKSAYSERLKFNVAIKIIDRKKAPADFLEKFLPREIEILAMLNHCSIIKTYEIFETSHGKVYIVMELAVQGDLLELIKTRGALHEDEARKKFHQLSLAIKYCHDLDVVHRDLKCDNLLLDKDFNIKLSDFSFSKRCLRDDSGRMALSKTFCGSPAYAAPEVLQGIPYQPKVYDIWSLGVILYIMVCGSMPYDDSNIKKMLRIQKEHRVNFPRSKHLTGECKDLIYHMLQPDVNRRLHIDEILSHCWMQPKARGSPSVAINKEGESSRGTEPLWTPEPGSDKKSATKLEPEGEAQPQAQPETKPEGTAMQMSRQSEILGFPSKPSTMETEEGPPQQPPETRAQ

[10] = target: T10, ULK2(h) (Homo sapiens, UniProt Q8IYT8)
T10 construct: purchased Eurofins (KinaseProfiler)
T10 sequence (Q8IYT8 1-1036): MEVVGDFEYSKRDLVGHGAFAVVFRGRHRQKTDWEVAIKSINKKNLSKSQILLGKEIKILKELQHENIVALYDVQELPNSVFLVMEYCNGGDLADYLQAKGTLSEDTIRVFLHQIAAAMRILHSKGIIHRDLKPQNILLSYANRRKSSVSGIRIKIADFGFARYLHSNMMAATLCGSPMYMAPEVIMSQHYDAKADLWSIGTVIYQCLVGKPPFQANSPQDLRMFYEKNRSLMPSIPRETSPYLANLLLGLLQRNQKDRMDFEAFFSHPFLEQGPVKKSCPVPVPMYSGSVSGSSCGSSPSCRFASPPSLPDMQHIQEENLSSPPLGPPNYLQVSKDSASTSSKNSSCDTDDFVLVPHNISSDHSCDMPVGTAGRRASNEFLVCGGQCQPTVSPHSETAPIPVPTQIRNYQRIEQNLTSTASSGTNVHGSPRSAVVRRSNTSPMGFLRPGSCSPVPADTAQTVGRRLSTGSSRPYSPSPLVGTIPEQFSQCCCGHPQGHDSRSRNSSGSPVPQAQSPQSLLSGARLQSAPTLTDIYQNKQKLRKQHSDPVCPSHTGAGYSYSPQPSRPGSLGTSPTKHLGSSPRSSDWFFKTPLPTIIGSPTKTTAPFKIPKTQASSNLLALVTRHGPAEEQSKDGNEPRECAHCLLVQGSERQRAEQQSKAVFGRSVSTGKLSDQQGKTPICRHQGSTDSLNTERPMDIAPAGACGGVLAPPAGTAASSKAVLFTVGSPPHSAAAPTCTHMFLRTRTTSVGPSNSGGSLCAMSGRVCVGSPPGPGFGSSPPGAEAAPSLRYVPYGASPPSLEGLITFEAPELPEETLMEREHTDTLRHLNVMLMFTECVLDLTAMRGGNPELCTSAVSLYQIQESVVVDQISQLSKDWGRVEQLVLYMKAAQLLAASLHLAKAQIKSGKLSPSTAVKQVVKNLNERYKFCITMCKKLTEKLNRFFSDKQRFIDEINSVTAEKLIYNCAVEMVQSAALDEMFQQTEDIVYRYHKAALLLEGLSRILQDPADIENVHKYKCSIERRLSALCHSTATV

[11] = target: T11, Wee1B(h) (Homo sapiens, UniProt P0C1S8)
T11 construct: purchased Eurofins (KinaseProfiler)
T11 sequence (P0C1S8 whole entry): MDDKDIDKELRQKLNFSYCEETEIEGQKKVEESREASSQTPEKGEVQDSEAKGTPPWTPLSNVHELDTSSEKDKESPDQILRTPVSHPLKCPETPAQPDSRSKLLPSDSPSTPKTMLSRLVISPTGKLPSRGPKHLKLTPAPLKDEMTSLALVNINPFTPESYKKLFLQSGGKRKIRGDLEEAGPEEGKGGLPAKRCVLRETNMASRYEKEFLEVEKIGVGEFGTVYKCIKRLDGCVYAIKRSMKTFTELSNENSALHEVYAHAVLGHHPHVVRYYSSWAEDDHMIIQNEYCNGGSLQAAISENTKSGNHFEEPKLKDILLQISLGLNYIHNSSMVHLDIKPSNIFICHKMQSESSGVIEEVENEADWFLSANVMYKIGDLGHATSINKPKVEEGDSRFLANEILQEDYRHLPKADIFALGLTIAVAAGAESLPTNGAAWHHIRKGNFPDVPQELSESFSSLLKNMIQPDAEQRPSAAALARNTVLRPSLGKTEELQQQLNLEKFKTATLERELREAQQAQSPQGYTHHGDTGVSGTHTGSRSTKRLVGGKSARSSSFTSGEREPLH

Compound: COc1cc(OC)c(Cl)c(-c2ccc3c(NC(=O)c4ccc(N5CCNC(C)(C)C5)cc4)n[nH]c3n2)c1Cl [3D185]
- inhibition at 0.01 µM ([1]; 10 nM): 3%
- inhibition at 0.1 µM ([1]; 100 nM): -7%
- inhibition at 1 µM ([1]; 1000 nM): -1%
- inhibition at 0.01 µM ([2]; 10 nM): -4%
- inhibition at 0.1 µM ([2]; 100 nM): 10%
- inhibition at 1 µM ([2]; 1000 nM): 6%
- inhibition at 0.01 µM ([3]; 10 nM): 1%
- inhibition at 0.1 µM ([3]; 100 nM): 27%
- inhibition at 1 µM ([3]; 1000 nM): 77%
- inhibition at 0.01 µM ([4]; 10 nM): -9%
- inhibition at 0.1 µM ([4]; 100 nM): -1%
- inhibition at 1 µM ([4]; 1000 nM): 26%
- inhibition at 0.01 µM ([5]; 10 nM): -1%
- inhibition at 0.1 µM ([5]; 100 nM): -4%
- inhibition at 1 µM ([5]; 1000 nM): 24%
- inhibition at 0.01 µM ([6]; 10 nM): 4%
- inhibition at 0.1 µM ([6]; 100 nM): 1%
- inhibition at 1 µM ([6]; 1000 nM): 26%
- inhibition at 0.01 µM ([7]; 10 nM): -5%
- inhibition at 0.1 µM ([7]; 100 nM): 0%
- inhibition at 1 µM ([7]; 1000 nM): 2%
- inhibition at 0.01 µM ([8]; 10 nM): 0%
- inhibition at 0.1 µM ([8]; 100 nM): -1%
- inhibition at 1 µM ([8]; 1000 nM): -1%
- inhibition at 0.01 µM ([9]; 10 nM): 5%
- inhibition at 0.1 µM ([9]; 100 nM): 2%
- inhibition at 1 µM ([9]; 1000 nM): 13%
- inhibition at 0.01 µM ([10]; 10 nM): 4%
- inhibition at 0.1 µM ([10]; 100 nM): 14%
- inhibition at 1 µM ([10]; 1000 nM): 22%
- inhibition at 0.01 µM ([11]; 10 nM): 9%
- inhibition at 0.1 µM ([11]; 100 nM): -2%
- inhibition at 1 µM ([11]; 1000 nM): 9%
